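48-hour exposure; five concentrations; linearly interpolated endpoints. Here, GI50 denotes the concentration required for 50% inhibition of growth.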 Activity calls are given as the source filed them. Cut-off read from the data, not from the text of the source: active = GI50 up to about 1.1 µM and inactive = higher.
Columns and labels:
Test in all cases: NCI tumour cell line growth inhibition, 48 h
HT-29 = tested on: HT-29
SK-MEL-2 = tested on: SK-MEL-2
HCT-15 = tested on: HCT-15
LOX IMVI = tested on: LOX IMVI
SW-620 = tested on: SW-620
SNB-19 = tested on: SNB-19
K562 = tested on: K562
SF-268 = tested on: SF-268
UACC-257 = tested on: UACC-257
SNB-75 = tested on: SNB-75
NCI-H522 = tested on: NCI-H522
SK-MEL-28 = tested on: SK-MEL-28
MOLT-4 = tested on: MOLT-4
NCI-H460 = tested on: NCI-H460
HOP-92 = tested on: HOP-92
HCC 2998 = tested on: HCC 2998
Malme-3M = tested on: Malme-3M
HL-60 = tested on: HL-60
SN12C = tested on: SN12C
CCRF-CEM = tested on: CCRF-CEM

Structure (SMILES)	GI50 (HT-29)	GI50 (SK-MEL-2)	GI50 (HCT-15)	GI50 (LOX IMVI)	GI50 (SW-620)	GI50 (SNB-19)	GI50 (K562)	GI50 (SF-268)	GI50 (UACC-257)	GI50 (SNB-75)	GI50 (NCI-H522)	GI50 (SK-MEL-28)	GI50 (MOLT-4)	GI50 (NCI-H460)	GI50 (HOP-92)	GI50 (HCC 2998)	GI50 (Malme-3M)	GI50 (HL-60)	GI50 (SN12C)	GI50 (CCRF-CEM)
CCCCCCCCCCCCCCCC(=O)OC1C(O)C(CO)OC(OC)C1NC(=O)N(CCCl)N=O (stereo unspecified)	12.8 µM (inactive)	23.9 µM (inactive)	23.7 µM	11.4 µM (inactive)	10.9 µM (inactive)	10.4 µM (inactive)	22.3 µM (inactive)	2.64 µM (inactive)	16.3 µM (inactive)	12 µM (inactive)	10.7 µM (inactive)	14.2 µM (inactive)	3.08 µM (inactive)	3.78 µM (inactive)	–	–	–	–	–	–
CO/N=C1/c2sccc2[C@H](NC(=O)C(F)(F)F)[C@@H]1O	> 100 µM (inactive)	> 100 µM (inactive)	> 100 µM	> 100 µM (inactive)	> 100 µM (inactive)	–	> 100 µM (inactive)	> 100 µM (inactive)	> 100 µM (inactive)	> 100 µM (inactive)	–	> 100 µM (inactive)	> 100 µM (inactive)	> 100 µM (inactive)	> 100 µM (inactive)	> 100 µM (inactive)	> 100 µM (inactive)	> 100 µM (inactive)	> 100 µM (inactive)	> 100 µM (inactive)
CCCCCCCCCOCC(COP(=O)([O-])OCC[N+](C)(C)C)OC (stereo unspecified)	> 100 µM (inactive)	> 100 µM (inactive)	> 100 µM	> 100 µM (inactive)	> 100 µM (inactive)	> 100 µM (inactive)	> 100 µM (inactive)	> 100 µM (inactive)	> 100 µM (inactive)	> 100 µM (inactive)	> 100 µM (inactive)	> 100 µM (inactive)	> 100 µM (inactive)	> 100 µM (inactive)	> 100 µM (inactive)	> 100 µM (inactive)	> 100 µM (inactive)	> 100 µM (inactive)	> 100 µM (inactive)	> 100 µM (inactive)
COc1ccc(N2CN(C)CSC2=S)cc1	> 100 µM (inactive)	> 100 µM (inactive)	76 µM	86.7 µM (inactive)	43 µM (inactive)	> 100 µM (inactive)	21.1 µM (inactive)	97.9 µM (inactive)	> 100 µM (inactive)	> 100 µM (inactive)	29.7 µM (inactive)	> 100 µM (inactive)	76.7 µM (inactive)	76 µM (inactive)	–	> 100 µM (inactive)	> 100 µM (inactive)	72.8 µM (inactive)	> 100 µM (inactive)	13.1 µM (inactive)
CC(=O)CC(=O)CCC(=O)O [SUCCINYLACETONE]	> 100 µM (inactive)	> 100 µM (inactive)	> 100 µM	> 100 µM (inactive)	> 100 µM (inactive)	> 100 µM (inactive)	> 100 µM (inactive)	> 100 µM (inactive)	> 100 µM (inactive)	< 0.01 µM (active)	> 100 µM (inactive)	> 100 µM (inactive)	57.3 µM (inactive)	> 100 µM (inactive)	< 0.01 µM (active)	> 100 µM (inactive)	> 100 µM (inactive)	> 100 µM (inactive)	> 100 µM (inactive)	–
O=C1CNC(=O)N1 [HYDANTOIN]	> 1120 µM (inactive)	> 1120 µM (inactive)	> 1120 µM	> 1120 µM (inactive)	> 1120 µM (inactive)	> 1120 µM (inactive)	706 µM (inactive)	> 1120 µM (inactive)	> 1120 µM (inactive)	177 µM (inactive)	> 1120 µM (inactive)	> 1120 µM (inactive)	> 1120 µM (inactive)	> 1120 µM (inactive)	> 11.2 µM (inactive)	> 1120 µM (inactive)	> 1120 µM (inactive)	> 1120 µM (inactive)	> 1120 µM (inactive)	681 µM (inactive)
COC(=O)Cc1c(-c2c(CC(=O)OC)c3ccccc3n2C2OC(COC(C)=O)C(OC(C)=O)C(OC(C)=O)C2OC(C)=O)[nH]c2ccccc12 (stereo unspecified)	> 100 µM (inactive)	> 100 µM (inactive)	> 100 µM	–	> 100 µM (inactive)	> 100 µM (inactive)	–	> 100 µM (inactive)	> 100 µM (inactive)	–	52 µM (inactive)	> 100 µM (inactive)	> 100 µM (inactive)	> 100 µM (inactive)	> 100 µM (inactive)	> 100 µM (inactive)	> 100 µM (inactive)	–	> 100 µM (inactive)	> 100 µM (inactive)
O=C(N/N=C\c1cccc2ccccc12)Nc1ccccc1	> 100 µM (inactive)	> 100 µM (inactive)	> 100 µM	> 100 µM (inactive)	> 100 µM (inactive)	> 100 µM (inactive)	> 100 µM (inactive)	–	> 100 µM (inactive)	> 100 µM (inactive)	–	> 100 µM (inactive)	> 100 µM (inactive)	> 100 µM (inactive)	> 100 µM (inactive)	–	> 100 µM (inactive)	> 10 µM (inactive)	> 100 µM (inactive)	> 100 µM (inactive)
CCCOC1OC(CS(=O)(=O)O)C(OC(C)=O)C(OC(C)=O)C1OC(C)=O (stereo unspecified)	> 100 µM (inactive)	> 100 µM (inactive)	> 100 µM	> 100 µM (inactive)	> 100 µM (inactive)	> 100 µM (inactive)	> 100 µM (inactive)	–	> 100 µM (inactive)	> 100 µM (inactive)	–	> 100 µM (inactive)	> 100 µM (inactive)	> 100 µM (inactive)	> 100 µM (inactive)	> 100 µM (inactive)	> 100 µM (inactive)	> 100 µM (inactive)	> 100 µM (inactive)	> 100 µM (inactive)
Cc1ccc2c(=O)c3ccccc3sc2c1	77.3 µM (inactive)	–	–	> 100 µM (inactive)	> 100 µM (inactive)	66.4 µM (inactive)	> 100 µM (inactive)	> 100 µM (inactive)	–	–	> 100 µM (inactive)	> 100 µM (inactive)	72.8 µM (inactive)	> 100 µM (inactive)	–	> 100 µM (inactive)	> 100 µM (inactive)	26.9 µM (inactive)	> 100 µM (inactive)	> 100 µM (inactive)
